Marks after values point to notes of the source that are not given here.
System: not listed separately
Assay: log P determination by HPLC/LC-MS retention times, calibration with alkan-2-ones
Format: physicochemical
Conditions: HPLC on reversed-phase column (C 18), 43° C., EEC Directive 79/831 Annex V.A8
Procedure: In the acidic range, the determination is carried out at pH 2.3 using 0.1% aqueous phosphoric acid and acetonitrile as mobile phases; linear gradient from 10% acetonitrile to 95% acetonitrile.
The determination by LC-MS in the acidic range is carried out at pH 2.7 using 0.1% aqueous formic acid and acetonitrile (comprises 0.1% formic acid) as mobile phases; linear gradient from 10% acetonitrile to 95% acetonitrile.
The determination by LC-MS in the neutral range is carried out at pH 7.8 using 0.001 molar aqueous ammonium bicarbonate solution and acetonitrile as mobile phases; linear gradient from 10% acetonitrile to 95% acetonitrile.
Calibration is carried out using unbranched alkan-2-ones (having 3 to 16 carbon atoms) with known log P values (determination of the log P values by the retention times using linear interpolation between two successive alkanones).

| Compound | log P |
| --- | --- |
| COC(=O)C1(NC(=O)Cc2cc(-c3ccc(Cl)cc3)ccc2C)CCC2(CC1)OCCO2 [II-31] | log P 3.47* |
| CCc1cc(Br)cc(C)c1CC(=O)NC1(C(=O)OC)CCC2(CC1)OCCO2 [II-9] | wax log P 3.19* |
| CCc1cc(C)cc(CC)c1CC(=O)NC1(C(=O)OC)CCC2(CC1)OCCO2 [II-32] | log P 3.28* |
| CCc1cc(C)cc(C)c1CC(=O)NC1(C(=O)OC)CCC2(CC1)OCCO2 [II-8] | wax log P 2.95* |
| COC(=O)C1(NC(=O)Cc2cc(C)c(C)cc2C)CCC2(CC1)OCCCO2 [II-17] | log P 2.59* |
| COC(=O)C1(NC(=O)Cc2c(C)cc(C)cc2C)CCC2(CC1)OCCO2 [II-2] | log P 2.68 |
| CCc1cc(C)cc(Br)c1CC(=O)NC1(C(=O)OC)CCC2(CC1)OCCO2 [II-36] | log P 3.04* |
| COC(=O)C1(NC(=O)Cc2c(C)cc(Br)cc2C)CCC2(CC1)OCCO2 [II-7] | wax log P 2.81* |
| COC(=O)C1(NC(=O)Cc2c(C)cc(C)cc2OC)CCC2(CC1)OCCCO2 [II-24] | log P 2.49* |

Same assay, conditions: HPLC/LC-MS retention times; printed in the Isomer column of the (I-1-a) table

| Compound | chromatographic logP |
| --- | --- |
| CCCC1COC2(CCC3(CC2)NC(=O)C(c2c(C)cc(C)cc2C)=C3O)O1 (stereo not drawn) [Ex. I-1-a-8] | 2.73 |

Same assay, conditions: printed in the Isomer column of the (I-1-a) table

| Compound | logP |
| --- | --- |
| CCCC1COC2(CCC3(CC2)NC(=O)C(c2c(C)cc(C)cc2C)=C3O)O1 (single isomer, unassigned) [Ex. I-1-a-9] | 2.78 |

System: Test plants
Assay: Example U: Pre-emergence Test
Format: in vivo
Conditions: crop plant; greenhouse, 250 g of a.i./ha, after three weeks; sub-table 3
Procedure: To produce a suitable preparation of active compound, 1 part by weight of active compound is mixed with the stated amount of solvent, the stated amount of emulsifier is added and the concentrate is diluted with water to the desired concentration.
Seeds of the test plants are sown in normal soil. After about 24 hours, the soil is sprayed with the preparation of active compound such that the particular amounts of active compound desired are applied per unit area. The concentration of the spray liquor is chosen such that the particular amounts of active compound desired are applied in 1000 l of water/ha.
After three weeks, the degree of damage to the plants is rated in % damage in comparison to the development of the untreated control.
The figures denote: • 0%=no effect (like untreated control) • 100%=total destruction

| Compound | damage, Sugar beet [%] |
| --- | --- |
| Cc1cc(Cl)cc(C)c1C1=C(O)C2(CCC3(CC2)OCCCO3)NC1=O [Ex. I-1-a-14] | 0 |

Same assay, conditions: greenhouse, 250 g of a.i./ha, after three weeks; sub-table 2

| Compound | damage, Alopecurus [%] | damage, Echinochloa [%] | damage, Setaria [%] | damage, Sinapis [%] | damage, Avena fatua [%] |
| --- | --- | --- | --- | --- | --- |
| CCOC(=O)OC1=C(c2c(C)cc(Cl)cc2Cl)C(=O)NC12CCC1(CC2)OCCO1 [Ex. I-1-c-4] | 80 | 90 | 99 | 80 | – |
| Cc1cc(Cl)cc(Cl)c1C1=C(O)C2(CCC3(CC2)OCCCO3)NC1=O [Ex. I-1-a-11] | 90 | 80 | 90 | – | 70 |

Same assay, conditions: greenhouse, 250 g of a.i./ha, after three weeks; sub-table 3

| Compound | damage, Alopecurus [%] | damage, Avena fatua [%] | damage, Echinochloa [%] | damage, Setaria [%] |
| --- | --- | --- | --- | --- |
| Cc1cc(Cl)cc(C)c1C1=C(O)C2(CCC3(CC2)OCCCO3)NC1=O [Ex. I-1-a-14] | 95 | 80 | 80 | 90 |

Same assay, conditions: greenhouse, 250 g of a.i./ha, after three weeks; sub-table 4

| Compound | damage, Alopecurus [%] | damage, Echinochloa [%] | damage, Setaria [%] |
| --- | --- | --- | --- |
| Cc1cc(Cl)cc(Cl)c1C1=C(O)C2(CCC3(CC2)OCCCO3)NC1=O [Ex. I-1-a-11] | 80 | 80 | 100 |

System: Phaedon cochleariae
Assay: Example N: Phaedon Test (spray treatment)
Format: in vivo
Conditions: application rate 500 g/ha
Procedure: [table] To produce a suitable preparation of active compound, 1 part by weight of active compound is mixed with the stated amounts of solvents and emulsifier, and the concentrate is diluted with emulsifier-containing water to the desired concentration. Discs of Chinese cabbage (Brassica pekinensis) are sprayed with a preparation of active compound of the desired concentration and, after drying, populated with larvae of the mustard beetle (Phaedon cochleariae).

| Compound | activity in % [%] |
| --- | --- |
| Cc1cc(C)c(C2=C(O)C3(CCC4(CC3)OC(C)C(C)O4)NC2=O)c(C)c1 (mixture of isomers) [Ex. I-1-a-10] | 100 |
| CCCC1COC2(CCC3(CC2)NC(=O)C(c2c(C)cc(C)cc2C)=C3O)O1 (single isomer, unassigned) [Ex. I-1-a-9] | 100 |
| Cc1ccc(C)c(C2=C(O)C3(CCC4(CC3)OCC(C)(C)CO4)NC2=O)c1 [Ex. I-1-a-61] | 100 |
| Cc1cc(Cl)cc(C)c1C1=C(O)C2(CCC3(CC2)OC(C)CC(C)O3)NC1=O (mixture of isomers) [Ex. I-1-a-38] | 100 |
| Cc1cc(Br)cc(C)c1C1=C(O)C2(CCC3(CC2)OC(C)CC(C)O3)NC1=O (mixture of isomers) [Ex. I-1-a-56] | 100 |
| Cc1ccc(C)c(C2=C(O)C3(CCC4(CC3)OCCO4)NC2=O)c1 [Ex. I-1-a-68] | 100 |
| Cc1cc(Br)cc(C)c1C1=C(O)C2(CCC3(CC2)OCC(C)(C)CO3)NC1=O [Ex. I-1-a-33] | 100 |
| CCc1cc(Br)cc(C)c1C1=C(O)C2(CCC3(CC2)OC(C)CC(C)O3)NC1=O (mixture of isomers) [Ex. I-1-a-63] | 100 |
| Cc1ccc(-c2ccc(Cl)cc2)cc1C1=C(O)C2(CCC3(CC2)OCC(C)(C)CO3)NC1=O [Ex. I-1-a-67] | 100 |
| Cc1cc(Cl)cc(C)c1C1=C(O)C2(CCC3(CC2)OCC(C)CO3)NC1=O (mixture of isomers) [Ex. I-1-a-34] | 100 |
| CC1COC2(CCC3(CC2)NC(=O)C(c2cc(-c4ccc(Cl)cc4)ccc2Cl)=C3O)OC1 (mixture of isomers) [Ex. I-1-a-65] | 100 |
| Cc1ccc(-c2ccc(Cl)cc2)cc1C1=C(O)C2(CCC3(CC2)OC(C)C(C)O3)NC1=O (mixture of isomers) [Ex. I-1-a-54] | 100 |
| CCc1cc(Br)cc(C)c1C1=C(O)C2(CCC3(CC2)OCC(C)O3)NC1=O (mixture of isomers) [Ex. I-1-a-53] | 100 |
| CCc1cc(Br)cc(C)c1C1=C(O)C2(CCC3(CC2)OCCO3)NC1=O [Ex. I-1-a-39] | 100 |
| COCC1COC2(CCCC3(C2)NC(=O)C(c2c(C)cc(C)cc2C)=C3O)O1 (mixture of isomers) [Ex. I-1-a-71] | 100 |
| Cc1ccc(-c2ccc(Cl)cc2)cc1C1=C(O)C2(CCC3(CC2)OCC(C)O3)NC1=O (mixture of isomers) [Ex. I-1-a-52] | 100 |
| CCOC(=O)OC1=C(c2c(C)cc(C)cc2OC)C(=O)NC12CCC1(CC2)OCCCO1 [Ex. I-1-c-34] | 100 |
| COc1cc(C)cc(C)c1C1=C(O)C2(CCC3(CC2)OCCCO3)NC1=O [Ex. I-1-a-24] | 100 |

| Compound | activity in % [%] |
| --- | --- |
| CCc1cc(Br)cc(C)c1C1=C(O)C2(CCC3(CC2)OC(C)C(C)O3)NC1=O (mixture of isomers) [Ex. I-1-a-45] | 100 |
| Cc1ccc(-c2ccc(Cl)cc2)c(C)c1C1=C(O)C2(CCC3(CC2)OCC(C)O3)NC1=O (mixture of isomers) [Ex. I-1-a-51] | 100 |
| CCOC(=O)OC1=C(c2cc(C)ccc2C)C(=O)NC12CCC1(CC2)OCC(C)O1 (mixture of isomers) [Ex. I-1-c-19] | 100 |
| Cc1cc(Br)cc(C)c1C1=C(O)C2(CCC3(CC2)OC(C)C(C)O3)NC1=O (mixture of isomers) [Ex. I-1-a-46] | 100 |
| Cc1cc(Cl)cc(C)c1C1=C(O)C2(CCC3(CC2)OC(C)C(C)O3)NC1=O (mixture of isomers) [Ex. I-1-a-30] | 100 |
| O=C1NC2(CCC3(CC2)OCCO3)C(O)=C1c1cc(-c2ccc(Cl)cc2)ccc1Cl [Ex. I-1-a-49] | 100 |
| Cc1cc(Cl)cc(C)c1C1=C(O)C2(CCC3(CC2)OCC(C)(C)CO3)NC1=O [Ex. I-1-a-20] | 100 |
| Cc1cc(Br)cc(C)c1C1=C(O)C2(CCC3(CC2)OCC(C)O3)NC1=O (mixture of isomers) [Ex. I-1-a-47] | 100 |
| Cc1ccc(-c2ccc(Cl)cc2)cc1C1=C(O)C2(CCC3(CC2)OCCO3)NC1=O [Ex. I-1-a-27] | 100 |
| CCOC(=O)OC1=C(c2cc(-c3ccc(Cl)cc3)ccc2C)C(=O)NC12CCC1(CC2)OCCCO1 [Ex. I-1-c-31] | 100 |
| Cc1ccc(-c2ccc(Cl)cc2)cc1C1=C(O)C2(CCC3(CC2)OCCC(C)O3)NC1=O (mixture of isomers) [Ex. I-1-a-66] | 100 |
| COc1cc(C)cc(C)c1C1=C(O)C2(CCC3(CC2)OCCO3)NC1=O [Ex. I-1-a-43] | 100 |
| Cc1cc(Br)cc(C)c1C1=C(O)C2(CCC3(CC2)OCC(C)CO3)NC1=O (mixture of isomers) [Ex. I-1-a-32] | 100 |
| Cc1cc(Cl)cc(C)c1C1=C(O)C2(CCC3(CC2)OCC(C)O3)NC1=O (mixture of isomers) [Ex. I-1-a-31] | 100 |
| CC1(C)COC2(CCC3(CC2)NC(=O)C(c2cc(-c4ccc(Cl)cc4)ccc2Cl)=C3O)OC1 [Ex. I-1-a-64] | 100 |
| Cc1ccc(-c2ccc(Cl)cc2)cc1C1=C(O)C2(CCC3(CC2)OCCCO3)NC1=O [Ex. I-1-a-16] | 100 |
| CCCC1COC2(CCC3(CC2)NC(=O)C(c2c(C)cc(C)cc2C)=C3O)O1 (stereo not drawn) [Ex. I-1-a-8] | 100 |

System: Echinocloa crus-galli
Assay: Example V 2: Herbicidal Post-Emergence Action
Format: in vivo
Conditions: greenhouse, 320 g of a.i./ha, about 3 weeks
Procedure: (§1) Seeds of monocotyledonous and dicotyledonous weed and crop plants are placed into sandy loam in wood fibre pots, covered with soil and cultivated in a greenhouse under good growth conditions. 2-3 weeks after sowing, the test plants are treated at the one-leaf stage. The test compounds, formulated as wettable powders (WP), are then, in various dosages with a water application rate of 600 l/ha (converted), with 0.2% of wetting agent added, sprayed onto the green parts of the plants. After the test plants have been kept in the greenhouse under optimum growth conditions for about 3 weeks, the effect of the preparations is rated visually in comparison to untreated controls (herbicidal effect in percent (%): 100% effect=the plants have died, 0% effect=like control plants).

| Compound | herbicidal effect, Echinochloa [%] |
| --- | --- |
| Cc1cc(Cl)cc(C)c1C1=C(OC(=O)C(C)C)C2(CCC3(CC2)OCC(CCl)O3)OC1=O (stereo not drawn) [Ex. I-2-b-3] | 80 |

System: monocotyledonous and dicotyledonous weed and crop plants
Assay: Example V 2: Herbicidal Post-Emergence Action
Format: in vivo
Conditions: greenhouse, 320 g of a.i./ha, about 3 weeks
Procedure: as §1

| Compound | herbicidal effect, Amaranthus [%] | herbicidal effect, Stellaria [%] |
| --- | --- | --- |
| Cc1cc(Br)cc(C)c1C1=C(O)C2(CCC3(CC2)OCCO3)OC1=O [Ex. I-2-a-5] | 70 | 60 |

System: Lolium multiflorum
Assay: Example V 2: Herbicidal Post-Emergence Action
Format: in vivo
Conditions: greenhouse, 320 g of a.i./ha, about 3 weeks
Procedure: as §1

| Compound | herbicidal effect, Lolium [%] |
| --- | --- |
| Cc1cc(Cl)cc(C)c1C1=C(OC(=O)C(C)C)C2(CCC3(CC2)OCC(CCl)O3)OC1=O (stereo not drawn) [Ex. I-2-b-3] | 100 |
| Cc1cc(Br)cc(C)c1C1=C(O)C2(CCC3(CC2)OCCO3)OC1=O [Ex. I-2-a-5] | 100 |

System: Setaria viridis
Assay: Example V 2: Herbicidal Post-Emergence Action
Format: in vivo
Conditions: greenhouse, 320 g of a.i./ha, about 3 weeks
Procedure: as §1

| Compound | herbicidal effect, Setaria [%] |
| --- | --- |
| Cc1cc(Cl)cc(C)c1C1=C(OC(=O)C(C)C)C2(CCC3(CC2)OCC(CCl)O3)OC1=O (stereo not drawn) [Ex. I-2-b-3] | 90 |
| Cc1cc(Br)cc(C)c1C1=C(O)C2(CCC3(CC2)OCCO3)OC1=O [Ex. I-2-a-5] | 70 |

Reference: patent publication US7897543B2, “Spiroketal-substituted cyclic ketoenols” (Bayer CropScience AG, priority 2005, dated 2011)
